Assay results reported in paper PMC5971061, “Differential Effects of Linkers on the Activity of Amphiphilic Tobramycin Antifungals” (Molecules : A Journal of Synthetic Chemistry and Natural …, 2018).
In brackets after ≈: the same amount, converted by molar mass. Where two headings read alike, the source gives them in different places.

Assays:
[1] = tested on: C. albicans ATCC 10231 (strain A); test: MIC, broth microdilution (CLSI M27-A3), yeast strain A; format: cell-based, Candida albicans; conditions: Candida albicans, ATCC10231; MIC-0, strain A, 35 °C 48 h
Method in brief: (§1)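 RPMI 1640 broth microdilution; inoculum 1–5 × 10^3 CFU/mL from overnight YPD culture; test compounds final 0.24–62.5 μg/mL, caspofungin control 0.03–31.3 μg/mL; 35 °C, 48 h; triplicate.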

[2] = tested on: C. albicans ATCC 64124 (strain B); test: MIC, broth microdilution (CLSI M27-A3), yeast strain B; format: cell-based; conditions: Candida albicans, ATCC64124; MIC-0, strain B, 35 °C 48 h
Method in brief: as §1

[3] = tested on: C. albicans ATCC MYA-2876(S) (strain C); test: MIC, broth microdilution (CLSI M27-A3), yeast strain C; format: cell-based; conditions: Candida albicans; MIC-0, strain C, 35 °C 48 h
Method in brief: as §1

[4] = tested on: C. albicans ATCC 90819(R) (strain D); test: MIC, broth microdilution (CLSI M27-A3), yeast strain D; format: cell-based; conditions: Candida albicans, ATCC90819; MIC-0, strain D, 35 °C 48 h
Method in brief: as §1

[5] = tested on: C. albicans ATCC MYA-1237(R) (strain F); test: MIC, broth microdilution (CLSI M27-A3), yeast strain F; format: cell-based; conditions: Candida albicans; MIC-0, strain F, 35 °C 48 h
Method in brief: as §1

[6] = tested on: C. albicans ATCC MYA-1003(R) (strain G); test: MIC, broth microdilution (CLSI M27-A3), yeast strain G; format: cell-based; conditions: Candida albicans; MIC-0, strain G, 35 °C 48 h
Method in brief: as §1

[7] = tested on: Candida glabrata clinical isolate CG2; test: MIC, broth microdilution (CLSI M27-A3), CG2; format: cell-based; conditions: Nakaseomyces glabratus; MIC-0, CG2, 35 °C 48 h
Method in brief: as §1

[8] = tested on: Candida glabrata clinical isolate CG3; test: MIC, broth microdilution (CLSI M27-A3), CG3; format: cell-based; conditions: Nakaseomyces glabratus; MIC-0, CG3, 35 °C 48 h
Method in brief: as §1

[9] = tested on: Candida glabrata ATCC 2001 (strain H); test: MIC, broth microdilution (CLSI M27-A3), yeast strain H; format: cell-based; conditions: Nakaseomyces glabratus, ATCC2001; MIC-0, strain H, 35 °C 48 h
Method in brief: as §1

[10] = tested on: Candida krusei ATCC 6258 (strain I); test: MIC, broth microdilution (CLSI M27-A3), yeast strain I; format: cell-based; conditions: Pichia kudriavzevii, ATCC6258; MIC-0, strain I, 35 °C 48 h
Method in brief: as §1

[11] = tested on: Candida parapsilosis ATCC 22019 (strain J); test: MIC, broth microdilution (CLSI M27-A3), yeast strain J; format: cell-based; conditions: Lodderomyces parapsilosis, ATCC22019; MIC-0, strain J, 35 °C 48 h
Method in brief: as §1

[12] = tested on: Candida parapsilosis clinical isolate CP2; test: MIC, broth microdilution (CLSI M27-A3), CP2; format: cell-based; conditions: Lodderomyces parapsilosis; MIC-0, CP2, 35 °C 48 h
Method in brief: as §1

[13] = tested on: Cryptococcus neoformans clinical isolate CN1; test: MIC, broth microdilution (CLSI M27-A3), CN1; format: cell-based; conditions: MIC-0, CN1, 35 °C 48 h
Method in brief: as §1

[14] = tested on: Cryptococcus neoformans clinical isolate CN2; test: MIC, broth microdilution (CLSI M27-A3), CN2; format: cell-based; conditions: MIC-0, CN2, 35 °C 48 h
Method in brief: as §1

[15] = tested on: Cryptococcus neoformans clinical isolate CN3; test: MIC, broth microdilution (CLSI M27-A3), CN3; format: cell-based; conditions: MIC-0, CN3, 35 °C 48 h
Method in brief: as §1

[16] = tested on: Aspergillus nidulans ATCC 38163 (strain L); test: MIC, filamentous fungi (CLSI M38-A2), strain L; format: cell-based; conditions: MIC-0, strain L, 35 °C 72 h
Method in brief: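 Spores from PDA cultures, inoculum 5 × 10^5 spores/mL in RPMI 1640 against two-fold serial dilutions (0.24–62.5 μg/mL for tobramycin derivatives). Incubated 72 h at 35 °C, triplicate.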

[17] = tested on: seven C. albicans strains (A-G); test: MIC across the panel of seven C. albicans strains; format: cell-based; conditions: Candida albicans; across all seven C. albicans strains tested
Procedure: (§2) The final concentrations of compounds 3, 4, 7a, 7b, 9, and 16, as well as that of TOB tested in this study ranged from 0.24–62.5 μg/mL. CAS was used as a positive control and the final concentrations tested for CAS ranged from 0.03–31.3 μg/mL. Briefly, overnight yeast cultures were grown in yeast peptone dextrose (YPD) broth and the cell density was adjusted to an OD600 of 0.12 (~1 × 10^6 CFU/mL) by using a spectrophotometer. Yeast cell suspensions were further diluted to achieve 1–5 × 10^3 CFU/mL in RPMI 1640 medium, and 100 μL of these yeast cells was added to 96-well microtiter plates containing RPMI 1640 medium and titrated compounds. Each test was performed in triplicate. The plates were incubated at 35 °C for 48 h.

[18] = tested on: nine non-albicans Candida strains (H-J, CG1-3, CP1-3); test: MIC across the panel of nine non-albicans Candida strains; format: cell-based, Candida glabrata, Candida krusei, Candida parapsilosis
Procedure: as §2

Hemolytic activity assay = format: cell-based, murine; conditions: mouse, murine red blood cells (mRBCs); for hemolysis at 1 h, 0.48 μg/mL / hemolysis at 1 h, 0.975 μg/mL / hemolysis at 1 h, 1.95 μg/mL / hemolysis at 1 h, 3.9 μg/mL / hemolysis at 1 h, 7.8 μg/mL / hemolysis at 1 h, 15.6 μg/mL / hemolysis at 1 h, 31.3 μg/mL / hemolysis at 1 h, 62.5 μg/mL: mRBCs, 37 °C 1 h, ± SDEV; for hemolysis at 1 h: at their MIC values against the Aspergillus strains
Procedure: The hemolytic activity of compounds 3, 4, 7a, 7b, and 9 as well as the parent compound TOB was determined by using previously described methods with minor modifications. Murine whole blood (1 mL) was suspended in 4 mL of PBS and centrifuged at 1000 rpm for 10 min at room temperature to obtain murine red blood cells (mRBCs). The mRBCs were washed four times in PBS and resuspended in the same buffer to a final concentration of 10^7 erythrocytes/mL. Two-fold serial dilutions of compounds 3, 4, 7a, 7b, and 9 were prepared using 100 μL of PBS buffer in Eppendorf tubes followed by the addition of 100 μL of mRBC suspension that made the final concentration of compounds and mRBCs to be 0.48–62.5 μg/mL and 5 × 10^6 erythrocytes/mL, respectively. The tubes were incubated at 37 °C for 1 h. The tubes with PBS buffer (200 μL) and Triton X-100® (1% v/v, 2 μL) served as the negative (blank) and positive controls, respectively. The percentage of hemolysis was calculated using the following equation: % hemolysis = [(absorbance of sample) − (absorbance of blank)] × 100/(absorbance of positive control).

[19] = Aspergillus nidulans, ATCC38163, 72 h, read-out: MIC

| SMILES | MIC [1] | MIC [2] | MIC [3] | MIC [4] | MIC [5] | MIC [6] | MIC [7] | MIC [8] | MIC [9] | MIC [10] | MIC [11] | MIC [12] | MIC [13] | MIC [14] | MIC [15] | MIC [16, 19] | MIC [16] | MIC [17] | MIC [18] | hemolysis at 1 h, 0.48 μg/mL (Hemolytic activity assay) | further results |
| --- | --- | --- | --- | --- | --- | --- | --- | --- | --- | --- | --- | --- | --- | --- | --- | --- | --- | --- | --- | --- | --- |
| CCCCCCCCCCCC(=O)NC[C@H]1O[C@H](O[C@@H]2[C@@H](O)[C@H](O[C@H]3O[C@H](CN)[C@@H](O)C[C@H]3N)[C@@H](N)C[C@H]2N)[C@H](O)[C@@H](N)[C@@H]1O [Compound 9, O-3-Amino-3,6-dideoxy-6-[(1-oxododecyl)amino]-α-D-glucopyranosyl-(1→6)-O-[2,6-diamino-2,3,6-trideoxy-α-D-ribo-hexopyranosyl-(1→4)]-2-deoxy-D-streptamine] | 31.3 µg/mL (≈ 48.2 µM) | 15.6 µg/mL (≈ 24 µM) | 31.3 µg/mL (≈ 48.2 µM) | 62.5 µg/mL (≈ 96.3 µM) | 31.3 µg/mL (≈ 48.2 µM) | 31.3 µg/mL (≈ 48.2 µM) | 15.6 µg/mL (≈ 24 µM) | 15.6 µg/mL (≈ 24 µM) | 31.3 µg/mL (≈ 48.2 µM) | 15.6 µg/mL (≈ 24 µM) | 7.8 µg/mL (≈ 12 µM) | 15.6 µg/mL (≈ 24 µM) | 0.975 µg/mL (≈ 1.5 µM) | 0.975 µg/mL (≈ 1.5 µM) | 0.975 µg/mL (≈ 1.5 µM) | 1.95 to 3.9 µg/mL (≈ 3.01 to 6.01 µM) | 3.9 µg/mL (≈ 6.01 µM) | 15.6 to 62.5 µg/mL (≈ 24 to 96.3 µM) | 7.8 to 31.3 µg/mL (≈ 12 to 48.2 µM) | 0% | hemolysis at 1 h, 0.975 μg/mL (Hemolytic activity assay): 0%; hemolysis at 1 h, 1.95 μg/mL (Hemolytic activity assay): 2.5 ± 1.5%; hemolysis at 1 h, 3.9 μg/mL (Hemolytic activity assay): 4.1 ± 1.5%; hemolysis at 1 h, 7.8 μg/mL (Hemolytic activity assay): 10.1 ± 4.6%; hemolysis at 1 h, 15.6 μg/mL (Hemolytic activity assay): 18.3 ± 5.4%; hemolysis at 1 h, 31.3 μg/mL (Hemolytic activity assay): 26 ± 11.6%; hemolysis at 1 h, 62.5 μg/mL (Hemolytic activity assay): 31.5 ± 1.5%; hemolysis at 1 h (Hemolytic activity assay): 4 to 32% |
| CCCCCCCCCCCCSC[C@H]1O[C@H](O[C@@H]2[C@@H](O)[C@H](O[C@H]3O[C@H](CN)[C@@H](O)C[C@H]3N)[C@@H](N)C[C@H]2N)[C@H](O)[C@@H](N)[C@@H]1O [Compound 3, O-3-Amino-3-deoxy-6-S-dodecyl-6-thio-α-D-glucopyranosyl-(1→6)-O-[2,6-diamino-2,3,6-trideoxy-α-D-ribo-hexopyranosyl-(1→4)]-2-deoxy-D-streptamine] | 15.6 µg/mL (≈ 23.9 µM) | 15.6 µg/mL (≈ 23.9 µM) | 15.6 µg/mL (≈ 23.9 µM) | 15.6 µg/mL (≈ 23.9 µM) | 7.8 µg/mL (≈ 12 µM) | 15.6 µg/mL (≈ 23.9 µM) | 7.8 µg/mL (≈ 12 µM) | 15.6 µg/mL (≈ 23.9 µM) | 7.8 µg/mL (≈ 12 µM) | 3.9 µg/mL (≈ 5.98 µM) | 7.8 µg/mL (≈ 12 µM) | 7.8 µg/mL (≈ 12 µM) | 0.975 µg/mL (≈ 1.5 µM) | 0.48 µg/mL (≈ 0.736 µM) | 0.48 µg/mL (≈ 0.736 µM) | 1.95 to 3.9 µg/mL (≈ 2.99 to 5.98 µM) | 3.9 µg/mL (≈ 5.98 µM) | 7.8 to 31.3 µg/mL (≈ 12 to 48 µM) | 3.9 to 15.6 µg/mL (≈ 5.98 to 23.9 µM) | 0% | hemolysis at 1 h, 0.975 μg/mL (Hemolytic activity assay): 2.5 ± 2.3%; hemolysis at 1 h, 1.95 μg/mL (Hemolytic activity assay): 6 ± 3.5%; hemolysis at 1 h, 3.9 μg/mL (Hemolytic activity assay): 12 ± 1.9%; hemolysis at 1 h, 7.8 μg/mL (Hemolytic activity assay): 18.6 ± 6.6%; hemolysis at 1 h, 15.6 μg/mL (Hemolytic activity assay): 46.2 ± 2.3%; hemolysis at 1 h, 31.3 μg/mL (Hemolytic activity assay): 55.5 ± 3.9%; hemolysis at 1 h, 62.5 μg/mL (Hemolytic activity assay): 67 ± 4.6%; hemolysis at 1 h (Hemolytic activity assay): 12 to 74% |
| CCCCCCCCCCc1cn(C[C@H]2O[C@H](O[C@@H]3[C@@H](O)[C@H](O[C@H]4O[C@H](CN)[C@@H](O)C[C@H]4N)[C@@H](N)C[C@H]3N)[C@H](O)[C@@H](N)[C@@H]2O)nn1 [Compound 7a, O-3-Amino-3,6-dideoxy-6-(4-decyl-1H-1,2,3-triazol-1-yl)-α-D-glucopyranosyl-(1→6)-O-[2,6-diamino-2,3,6-trideoxy-α-D-ribo-hexopyranosyl-(1→4)]-2-deoxy-D-streptamine] | 31.3 µg/mL (≈ 47.5 µM) | 31.3 µg/mL (≈ 47.5 µM) | 62.5 µg/mL (≈ 94.9 µM) | 62.6 µg/mL (≈ 95 µM) | 62.5 µg/mL (≈ 94.9 µM) | 62.5 µg/mL (≈ 94.9 µM) | 15.6 µg/mL (≈ 23.7 µM) | 15.6 µg/mL (≈ 23.7 µM) | 62.5 µg/mL (≈ 94.9 µM) | 15.6 µg/mL (≈ 23.7 µM) | 15.6 µg/mL (≈ 23.7 µM) | 15.6 µg/mL (≈ 23.7 µM) | 0.975 µg/mL (≈ 1.48 µM) | 0.975 µg/mL (≈ 1.48 µM) | 0.48 µg/mL (≈ 0.729 µM) | 1.95 to 3.9 µg/mL (≈ 2.96 to 5.92 µM) | 3.9 µg/mL (≈ 5.92 µM) | 31.3 to 62.5 µg/mL (≈ 47.5 to 94.9 µM) | 15.6 to 62.5 µg/mL (≈ 23.7 to 94.9 µM) | 0% | hemolysis at 1 h, 0.975 μg/mL (Hemolytic activity assay): 0%; hemolysis at 1 h, 1.95 μg/mL (Hemolytic activity assay): 15.6 ± 9.3%; hemolysis at 1 h, 3.9 μg/mL (Hemolytic activity assay): 0%; hemolysis at 1 h, 7.8 μg/mL (Hemolytic activity assay): 7.4 ± 3.1%; hemolysis at 1 h, 15.6 μg/mL (Hemolytic activity assay): 14 ± 5.4%; hemolysis at 1 h, 31.3 μg/mL (Hemolytic activity assay): 14.8 ± 1.9%; hemolysis at 1 h, 62.5 μg/mL (Hemolytic activity assay): 14.8 ± 0.4% |
